From US8263606B2 (Xenon Pharmaceuticals Inc., priority 2008, dated 2012)

Columns and labels:
sodium channel = test: Guanidine influx assay (14C-guanidine radiotracer flux, in vitro); assay type: cell-based, human or rat; settings: guanidine influx assay using a known cell line that expresses a sodium channel
How it was run: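 Aconitine holds channels open while 14C-guanidine enters human or rat sodium-channel-expressing cells in choline-substituted low-sodium saline, with test agent present at ambient temperature. Retained tracer is scintillation-counted and IC50 fitted by a four-parameter logistic model.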

CYP3A4 = CYP3A4 (Homo sapiens, UniProt P08684); test: Cytochrome P450 (CYP450) Inhibition Assay, CYP3A4 (Vivid fluorescence, BOMCC substrate); settings: human, P450 Baculosomes (recombinant CYP3A4), probe BOMCC (Vivid substrate)
CYP3A4, sequence (P08684 whole entry): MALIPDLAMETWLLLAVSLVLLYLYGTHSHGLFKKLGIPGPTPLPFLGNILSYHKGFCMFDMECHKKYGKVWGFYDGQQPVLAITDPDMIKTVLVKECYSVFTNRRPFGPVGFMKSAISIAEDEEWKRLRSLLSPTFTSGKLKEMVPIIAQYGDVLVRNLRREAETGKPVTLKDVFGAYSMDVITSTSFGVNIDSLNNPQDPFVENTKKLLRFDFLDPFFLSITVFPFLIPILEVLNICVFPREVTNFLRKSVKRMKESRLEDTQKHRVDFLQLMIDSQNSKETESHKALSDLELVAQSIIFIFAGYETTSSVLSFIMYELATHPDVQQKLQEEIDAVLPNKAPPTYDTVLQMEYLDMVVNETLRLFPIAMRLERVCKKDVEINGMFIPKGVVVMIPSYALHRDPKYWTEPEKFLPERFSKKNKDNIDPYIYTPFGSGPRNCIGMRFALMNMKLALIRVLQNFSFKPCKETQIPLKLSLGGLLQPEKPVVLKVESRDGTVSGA

Row | IC50 (sodium channel; activity level class) [nM] | inhibition at 10 µM (CYP3A4) [%] | melting point | IC50 (sodium channel) [nM] | Compound
1 | 1000 to 10000 | < 50 | > 250 °C |  | Cc1nc2cc3c(cc2s1)C1(CO3)C(=O)Nc2ccccc21 (centres unmarked) [Example 1, 2-methylspiro[furo[2,3-f][1,3]benzothiazole-7,3′-indol]-2′(1′H)-one]
2 | 1 to 100 | > 50 | 183 to 185 °C |  | Cc1cccc(CN2C(=O)C3(COc4cc5c(cc43)OCCO5)c3ccccc32)n1 (centres unmarked) [Example 1.1, 1′-[(6-methylpyridin-2-yl)methyl]-2,3-dihydrospiro[furo[2,3-g][1,4]benzodioxine-8,3′-indol]-2′(1′H)-one]
3 | 1 to 100 | > 50 | 169 to 171 °C |  | Cc1cc(CN2C(=O)C3(COc4cc5c(cc43)OCO5)c3ccccc32)c(C)n1C(C)C (centres unmarked) [Example 1.3, 1′-{[2,5-dimethyl-1-(1-methylethyl)-1H-pyrrol-3-yl]methyl}spiro[furo[2,3-f][1,3]benzodioxole-7,3′-indol]-2′(1′H)-one]
4 | 1000 to 10000 | > 50 | 132 to 135 °C |  | O=C1N(Cc2ccc(Cl)s2)c2ccccc2C12COc1ccc(OCc3ccccc3)cc12 (centres unmarked) [Example 1.4, 5-(benzyloxy)-1′-[(5-chloro-2-thienyl)methyl]spiro[1-benzofuran-3,3′-indol]-2′(1′H)-one]
5 | 1 to 100 | > 50 | 240 °C (dec.) |  | O=C1Nc2c(Br)cccc2C12COc1cc3c(cc12)OCO3 (centres unmarked) [Example 1.5, 7′-bromospiro[furo[2,3-f][1,3]benzodioxole-7,3′-indol]-2′(1′H)-one]
6 | 1 to 100 | > 50 | 132 to 136 °C |  | CC(C)c1cc(CN2C(=O)C3(COc4cc5c(cc43)OCO5)c3ccccc32)on1 (centres unmarked) [Example 1.6, 1′-[(3-isopropylisoxazol-5-yl)methyl]spiro[furo[2,3-f][1,3]benzodioxole-7,3′-indol]-2′(1′H)-one]
7 | 1 to 100 | > 50 | 136 to 137 °C |  | Cc1nc(CN2C(=O)C3(COc4cc5c(cc43)OCO5)c3ccccc32)c(C(F)(F)F)o1 (centres unmarked) [Example 1.9, 1′-{[2-methyl-5-(trifluoromethyl)-1,3-oxazol-4-yl]methyl}spiro[furo[2,3-f][1,3]benzodioxole-7,3′-indol]-2′(1′H)-one]
8 | 1 to 100 | > 50 | 201 to 202 °C |  | O=C1N(Cc2ccc(Br)cn2)c2ccccc2C12COc1cc3c(cc12)OCCO3 (centres unmarked) [Example 1.14, 1′-[(5-bromopyridin-2-yl)methyl]-2,3-dihydrospiro[furo[2,3-g][1,4]benzodioxine-8,3′-indol]-2′(1′H)-one]
9 | 1000 to 10000 | < 50 | 114 to 116 °C |  | O=C1N(Cc2cc(-c3ccc(Cl)cc3)oc2C(F)(F)F)c2ccccc2C12COc1cc3c(cc12)OCO3 (centres unmarked) [Example 1.15, 1′-{[5-(4-chlorophenyl)-2-(trifluoromethyl)furan-3-yl]methyl}spiro[furo[2,3-f][1,3]benzodioxole-7,3′-indol]-2′(1′H)-one]
10 | 1 to 100 | > 50 | 180 to 182 °C |  | Cn1nc(C(F)(F)F)c(CN2C(=O)C3(COc4cc5c(cc43)OCO5)c3ccccc32)c1Cl (centres unmarked) [Example 1.16, 1′-{[5-chloro-1-methyl-3-(trifluoromethyl)-1H-pyrazol-4-yl]methyl}spiro[furo[2,3-f][1,3]benzodioxole-7,3′-indol]-2′(1′H)-one]
11 | 1000 to 10000 | < 50 | 193 to 195 °C |  | Cc1cc2c(cc1C)C1(CO2)C(=O)N(C(c2ccccc2)c2ccccc2)c2ccccc21 (centres unmarked) [Example 2.3, 1′-(diphenylmethyl)-5,6-dimethylspiro[1-benzofuran-3,3′-indol]-2′(1′H)-one]
12 | 1 to 100 | > 50 | 138 to 139 °C |  | COc1ccc(CN2C(=O)C3(COc4cc5onc(C)c5cc43)c3ccccc32)cc1 (centres unmarked) [Example 2.6, 1′-(4-methoxybenzyl)-3-methylspiro[furo[3,2-f][1,2]benzisoxazole-5,3′-indol]-2′(1′H)-one]
13 | 1000 to 10000 | < 50 | 182 to 184 °C |  | O=C1N(C(c2ccccc2)c2ccccc2)c2ccccc2C12COc1ccc(F)cc12 (centres unmarked) [Example 2.9, 1′-(diphenylmethyl)-5-fluorospiro[1-benzofuran-3,3′-indol]-2′(1′H)-one]
14 | 1000 to 10000 | < 50 | 183 to 185 °C |  | O=C1N(C(c2ccccc2)c2ccccc2)c2ccccc2C12COc1cc3c(cc12)OCCO3 (centres unmarked) [Example 2.11, 1′-(diphenylmethyl)-2,3-dihydrospiro[furo[2,3-g][1,4]benzodioxine-8,3′-indol]-2′(1′H)-one]
15 | ≥ 10000 | < 50 | 240 to 242 °C |  | Cc1nc2cc3c(cc2o1)C1(CO3)C(=O)N(C(c2ccccc2)c2ccccc2)c2ccccc21 (centres unmarked) [Example 2.14, 1′-(diphenylmethyl)-2-methylspiro[furo[2,3-f][1,3]benzoxazole-7,3′-indol]-2′(1′H)-one]
16 | ≥ 10000 | < 50 | 228 to 229 °C |  | Cn1c(=O)oc2cc3c(cc21)OCC31C(=O)N(C(c2ccccc2)c2ccccc2)c2ccccc21 (centres unmarked) [Example 2.16, 1′-(diphenylmethyl)-3-methylspiro[furo[2,3-f][1,3]benzoxazole-7,3′-indole]-2,2′(1′H,3H)-dione]
17 | 1 to 100 | > 50 | 169 to 171 °C |  | CC(C)CCN1C(=O)C2(COc3cc4c(cc32)OCCO4)c2c1ccc1ncsc21 (centres unmarked) [Example 2.24, 6′-isopentyl-3,7-dihydro-2H-spiro[benzofuro[5,6-b][1,4]dioxine-8,8′-thiazolo[5,4-e]indol]-7′(6′H)-one]
18 | 100 to 1000 | > 50 | 189 to 191 °C |  | O=C1N(Cc2ccc(C(F)(F)F)o2)c2cc3c(cc2C12COc1cc4c(cc12)CCO4)OCCO3 (centres unmarked) [Example 2.25, 6-((5-(trifluoromethyl)furan-2-yl)methyl)-2,3,5′,6′-tetrahydro-2′H-spiro[f-[1,4]dioxino[2,3-f]indole-8,3′-benzofuro[6,5-b]furan]-7(6H)-one]
19 | 1000 to 10000 | < 50 | 220 to 225 °C |  | O=C1N(C[C@H]2CCCO2)c2cc3c(cc2C12COc1cc4c(cc12)CCO4)OCCO3 (stereo partly drawn) [Example 2.26, 6-(((R)-tetrahydrofuran-2-yl)methyl)-2,3,5′,6′-tetrahydro-2′H-spiro[[1,4]dioxino[2,3-f]indole-8,3′-benzofuro[6,5-b]furan]-7(6H)-one]
20 | 100 to 1000 | > 50 | 105 °C (dec.) |  | CN1CCOc2cc3c(cc21)C1(CO3)C(=O)N(Cc2ccc(C(F)(F)F)o2)c2ccccc21.Cl (centres unmarked) [Example 2.28, 1-methyl-1′-{[5-(trifluoromethyl)furan-2-yl]methyl}-2,3-dihydro-1H-spiro[furo[3,2-g][1,4]benzoxazine-8,3′-indol]-2′(1′H)-one hydrochloride]
21 |  |  | 179 to 181 °C | 100 to 1000 | O=C1N(C[C@H](O)CO)c2ccccc2C12COc1cc3c(cc12)OCCO3 (stereo partly drawn) [Example 40, 1′-[(2S)-2,3-dihydroxypropyl]-2,3-dihydrospiro[furo[2,3-g][1,4]benzodioxine-8,3′-indol]-2′(1′H)-one]
